Data from patent publication US20200338045A1, “ISOINDOLINE COMPOSITIONS AND METHODS FOR TREATING NEURODEGENERATIVE DISEASE” (priority 2017, published 2020).

Test system: CSF proteins
Experiment: LC/MSMS protein expression in CSF (COG0102)
Assay type: in vivo, human
Method: Plasma and CSF protein expression were measured by LC/MSMS in samples drawn prior to dosing (Day 0) and at end of dosing (Day 28) and were compared within each patient and between dosing groups.
This trial (ClinicalTrials.gov NCT02907567) was a randomized, double-blind, placebo-controlled clinical trial in mild to moderate Alzheimer's patients (MMSE 18-26) (See FIG. 1 for clinical trial design). The trial was conducted at six sites in Australia. Patients were randomized into placebo (n=5) or CT1812-treated groups: 90 mg (n=4), 280 mg (n=5) or 560 mg (n=5) and treated once daily for 28 days. Clinical chemistry was done at Sydpath (Sydney, AU). Pharmacokinetics were done at CPR Pharma Services (Adelaide, AU). Cerebrospinal fluid samples were taken at screening and day 21-28 of treatment and aliquoted. Plasma samples were taken at screening or Day 1 (one sample) and day 14-28, then spun down to separate plasma and aliquoted. One set of CSF samples was analyzed for Alzheimer's disease biomarkers; protein measurements (Aβ42, A1340, total tau, tau phosphorylated at threonine 181 (phosphorylated tau), NFL and neurogranin) were performed using commercially available ELISA assays from Fujirebio according to the manufacturer's instructions (INNOTEST β-AMYLOID(1-42), INNOTEST β-AMYLOID(1-40), INNOTEST hTau Ag, INNOTEST PHOSPHO-TAU(181P), Uman Diagnostics NFL assay). Neurogranin was measured with a sandwich ELISA method using antibodies Ng2 and Ng22 developed at the University of Gotteborg (Kvartsberg et al. 2015). Identical aliquots of CSF, and plasma were analyzed for protein expression changes via LC/MSMS at Caprion (see below).
Matched screening and day 28 plasma and CSF samples were analyzed by LC/MSMS at Caprion Biosciences Inc. Plasma was depleted of high and medium abundance proteins using a commercial immunoaffinity column, IgY14-Supermix (Sigma). CSF was depleted of only 14 high abundance proteins using MARS-14 (Agilent). All samples were digested with trypsin and plasma samples were fractionated by strong cation exchange chromatography (3 fractions). Both CSF and plasma samples were analyzed using a NanoAcquity UPLC coupled to a Q Exactive MS. […] The 12 most intense peaks per survey scan with charge states 2-8 fragmented and scanned with a mass range from 200 to 2000 m/z at a resolution of 17,500. Raw spectrometer data files for each LC-MS run were aligned independently using Elucidator software (Rosetta Biosoftware). The MS/MS spectra were matched to corresponding peptide sequences found in the Uniprot Human protein database (January 2017) using Mascot software, allowing for up to 2 missed cleavages, a peptide tolerance of 20 ppm, and an MS/MS tolerance of 0.05 Da. Outlier detection was performed by determining the average log-intensity of all isotope groups (IG) over injection order for all samples. Samples with an average value greater than 2 standard deviations from the mean were flagged for investigation. Following data transformation and normalization, expression analysis of the identified isotope groups was performed and the statistical significance of each comparison was assessed with a parametric, linear mixed model (LMM) and a non-parametric Wilcoxon ranked test (ranked p-values). Expression analysis was also performed at the peptide and protein levels, which used the same methodology as above, but applied to peptide/protein intensities, derived by rolling-up the corresponding isotope group intensities. Isotope groups not detected in at least half of the samples in either of the two groups being compared were not used for the roll-up.
Table 5 lists 30 proteins that were detected with at least 20% change in placebo vs. treated 28 days vs screening. The following values are reported for each statistical analysis performed: FC: Fold change calculated from the protein normalized intensity. FC>10 or <0.1 are unusually large and may be artifacts. […]

[1] = 28 days vs screening, fold change

## CC(C)(C)Oc1cc(CCC(C)(C)N2Cc3ccc(S(C)(=O)=O)cc3C2)ccc1O [CT1812]
  Afamin, % change treated vs placebo: −19%
  B3GNT9, % change treated vs placebo: 65%
  CD14, % change treated vs placebo: 20%
  Contactin 1, % change treated vs placebo: −23%
  EphA4, % change treated vs placebo: −7%
  FLNA, % change treated vs placebo: −51%
  PDIA1, % change treated vs placebo: 21%
  PDIA6, % change treated vs placebo: 44%
  ROBO4, % change treated vs placebo: 62%
  SERPINA4, % change treated vs placebo: −26%
  Synaptotagmin, % change treated vs placebo: −59%
  Tenascin C, % change treated vs placebo: −10%
28 days
  Synaptotagmin-1 expression decreased, CT1812-treated vs. placebo: 63%
[1]
  AFM, FC (Treated): 0.94
  ANGPTL2, FC (Treated): 0.80
  CAMK2D, FC (Treated): 1.04
  CD14, FC (Treated): 1.18
  CNTN1, FC (Treated): 0.97
  EFNB1, FC (Treated): 0.97
  EPHA4, FC (Treated): 0.94
  FGFR3, FC (Treated): 1.12
  GMFB, FC (Treated): 1.04
  GNPTG, FC (Treated): 1.18
  HLA-H, FC (Treated): 1.22
  ICAM2, FC (Treated): 1.11
  LILRB4, FC (Treated): 1.11
  MBL2, FC (Treated): 0.75
  MDGA2, FC (Treated): 1.01
  NPPC, FC (Treated): 0.90
  P4HB, FC (Treated): 1.10
  PDGFA, FC (Treated): 1.15
  PDIA6, FC (Treated): 1.15
  RBP4, FC (Treated): 0.82
  ROBO1, FC (Treated): 0.96
  ROBO4, FC (Treated): 1.22
  SAA4, FC (Treated): 1.17
  SEMA3F, FC (Treated): 1.40
  SERPINA4, FC (Treated): 0.88
  SMPDL3B, FC (Treated): 0.97
  SYT1, FC (Treated): 0.78
  TNC, FC (Treated): 1.04
  TPI1, FC (Treated): 0.90
  YWHAB, FC (Treated): 0.90
28 days, fold change
  AFM, FC (Treated vs. Placebo): 0.84
  ANGPTL2, FC (Treated vs. Placebo): 0.69
  CAMK2D, FC (Treated vs. Placebo): 1.22
  CD14, FC (Treated vs. Placebo): 1.20
  CNTN1, FC (Treated vs. Placebo): 0.81
  EFNB1, FC (Treated vs. Placebo): 0.93
  EPHA4, FC (Treated vs. Placebo): 0.93
  FGFR3, FC (Treated vs. Placebo): 1.83
  GMFB, FC (Treated vs. Placebo): 1.41
  GNPTG, FC (Treated vs. Placebo): 1.26
  HLA-H, FC (Treated vs. Placebo): 1.37
  ICAM2, FC (Treated vs. Placebo): 1.23
  LILRB4, FC (Treated vs. Placebo): 1.25
  MDGA2, FC (Treated vs. Placebo): 0.71
  NPPC, FC (Treated vs. Placebo): 0.91
  P4HB, FC (Treated vs. Placebo): 1.21
  PDGFA, FC (Treated vs. Placebo): 1.27
  PDIA6, FC (Treated vs. Placebo): 1.44
  RBP4, FC (Treated vs. Placebo): 0.81
  ROBO1, FC (Treated vs. Placebo): 0.82
  ROBO4, FC (Treated vs. Placebo): 1.62
  SAA4, FC (Treated vs. Placebo): 1.35
  SEMA3F, FC (Treated vs. Placebo): 1.58
  SERPINA4, FC (Treated vs. Placebo): 0.79
  SMPDL3B, FC (Treated vs. Placebo): 1.24
  SYT1, FC (Treated vs. Placebo): 0.63
  TNC, FC (Treated vs. Placebo): 0.91
  TPI1, FC (Treated vs. Placebo): 0.87
  YWHAB, FC (Treated vs. Placebo): 0.81
28 days, fold change, FC>10 may be artifacts
  MBL2, FC (Treated vs. Placebo): >10
Direction of change
  Afamin, With CT1812: significantly decreased and ↓*
  B3GNT9, With CT1812: dose dependently increased and ↑
  CD14, With CT1812: significantly increased and ↑*
  Contactin 1, With CT1812: significantly reduced and ↓*
  EphA4, With CT1812: ↓*
  FLNA, With CT1812: trend for reduction and ↓
  PDIA1, With CT1812: significantly increased and ↑*
  PDIA6, With CT1812: significantly increased and ↑*
  ROBO4, With CT1812: ↑*
  SERPINA4, With CT1812: significantly reduced and ↓*
  Synaptotagmin, With CT1812: significantly decreased and reduction and decreased and ↓*
  Tenascin C, With CT1812: ↓*
Treated group vs baseline
  Afamin, % change baseline treated: −7%
  B3GNT9, % change baseline treated: 55%
  CD14, % change baseline treated: 18%
  Contactin 1, % change baseline treated: −3%
  EphA4, % change baseline treated: −6%
  FLNA, % change baseline treated: −26%
  PDIA1, % change baseline treated: 10%
  PDIA6, % change baseline treated: 15%
  ROBO4, % change baseline treated: 22%
  SERPINA4, % change baseline treated: −13%
  Synaptotagmin, % change baseline treated: −28%
  Tenascin C, % change baseline treated: 4%
